Read-outs that look alike come from different tables or passages of the source.
Experiments:
SARS-CoV-1 (Toronto 2) = assay: microbe, parasite or virus in culture; type: cell-based; conditions: for IC50: Severe acute respiratory syndrome coronavirus, Vero C1008, 72 h, read-out: Antiviral IC50
[1] = tested on: SARS-CoV-2 (USA_WA1/2020); assay: microbe, parasite or virus in culture; type: cell-based; conditions: for IC50: Severe acute respiratory syndrome coronavirus 2, Vero C1008, 72 h, read-out: Antiviral IC50
MERS (EMC/2012) = assay: microbe, parasite or virus in culture; type: cell-based; conditions: for IC50: Middle East respiratory syndrome-related coronavirus
in vitro [2] = conditions: African green monkey
[3] = tested on: SARS-CoV-2 (βCoV/KOR/KCDC03/2020); assay: microbe, parasite or virus in culture; type: cell-based; conditions: for IC50: Severe acute respiratory syndrome coronavirus 2, Calu-3, 24 h
SARS-CoV-2 = type: cell-based
EBOV (Kikwit) = assay: microbe, parasite or virus in culture; type: cell-based; conditions: Zaire ebolavirus, Vero
EBOV (Makona) [4] = assay: microbe, parasite or virus in culture; type: cell-based; conditions: Zaire ebolavirus, HeLa
EBOV (Makona) [5] = assay: microbe, parasite or virus in culture; type: cell-based; conditions: Zaire ebolavirus, Vero
MARV = assay: organism not typed; type: cell-based; conditions: HeLa
MERS-CoV = assay: microbe, parasite or virus in culture; type: cell-based; conditions: Middle East respiratory syndrome-related coronavirus, MRC5
NiV = assay: organism not typed; type: cell-based; conditions: HeLa
LASV = assay: organism not typed; type: cell-based; conditions: HeLa
HTNV = assay: organism not typed; type: cell-based; conditions: Vero
WNV = assay: microbe, parasite or virus in culture; type: cell-based; conditions: West Nile virus, HeLa
Cat V (L2) [6] = biological target: Cat V (L2) (Homo sapiens, UniProt O60911); conditions: cited from earlier work
EBOV = conditions: rhesus monkey, in vivo
Cat G = Cat G (Homo sapiens, UniProt P08311); conditions: cited from earlier work
Cat D = Cat D (Homo sapiens, UniProt P07339); conditions: cited from earlier work
Calpain = conditions: cited from earlier work
Caspase 3-4 = conditions: cited from earlier work
Cat K [7] = biological target: Cat K (Macaca fascicularis, UniProt P61276); conditions: cited from earlier work
Cat L [8] = conditions: cited from earlier work
Cat V (L2) [9] = conditions: cited from earlier work
Cat L [10] = biological target: Cat L (Rattus norvegicus, UniProt P07154); conditions: cited from earlier work
Cat S = Cat S (Rattus norvegicus, UniProt Q02765); conditions: cited from earlier work
Cat K [11] = biological target: Cat K (Mus musculus, UniProt P55097); conditions: cited from earlier work
Cat L [12] = biological target: Cat L (Mus musculus, UniProt P06797); conditions: cited from earlier work
in vitro [13] = conditions: Syrian hamster
[14] = Vero C1008, read-out: Antiviral IC50 (std-incubation)
[15] = Vero C1008, read-out: pre-incubation IC50

Chain of Cat V (L2) (Homo sapiens, UniProt O60911) (O60911 114-334): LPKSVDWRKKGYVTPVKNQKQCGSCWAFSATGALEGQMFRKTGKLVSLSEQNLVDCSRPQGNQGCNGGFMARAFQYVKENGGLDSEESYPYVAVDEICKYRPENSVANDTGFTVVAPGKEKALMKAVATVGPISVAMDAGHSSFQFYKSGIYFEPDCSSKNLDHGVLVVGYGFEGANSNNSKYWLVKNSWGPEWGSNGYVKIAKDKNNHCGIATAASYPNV
Chain of Cat D (P07339 65-412): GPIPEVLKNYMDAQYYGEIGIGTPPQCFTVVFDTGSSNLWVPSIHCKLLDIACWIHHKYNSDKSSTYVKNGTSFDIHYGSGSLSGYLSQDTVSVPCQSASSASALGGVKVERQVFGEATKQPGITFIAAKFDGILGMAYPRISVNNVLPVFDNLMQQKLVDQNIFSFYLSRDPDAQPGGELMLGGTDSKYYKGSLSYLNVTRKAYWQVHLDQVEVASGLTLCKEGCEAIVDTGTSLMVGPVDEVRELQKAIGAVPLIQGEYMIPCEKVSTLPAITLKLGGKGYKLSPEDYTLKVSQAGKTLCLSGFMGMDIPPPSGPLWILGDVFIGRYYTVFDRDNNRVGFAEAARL
Chain of Cat K (Mus musculus, UniProt P55097) (P55097 115-329): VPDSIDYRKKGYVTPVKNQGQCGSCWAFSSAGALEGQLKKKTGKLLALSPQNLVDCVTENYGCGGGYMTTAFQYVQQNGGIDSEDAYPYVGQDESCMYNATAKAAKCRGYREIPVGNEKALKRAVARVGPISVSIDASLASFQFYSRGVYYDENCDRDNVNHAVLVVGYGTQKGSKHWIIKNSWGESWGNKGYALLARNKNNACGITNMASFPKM
Chain of Cat S (Q02765 113-330): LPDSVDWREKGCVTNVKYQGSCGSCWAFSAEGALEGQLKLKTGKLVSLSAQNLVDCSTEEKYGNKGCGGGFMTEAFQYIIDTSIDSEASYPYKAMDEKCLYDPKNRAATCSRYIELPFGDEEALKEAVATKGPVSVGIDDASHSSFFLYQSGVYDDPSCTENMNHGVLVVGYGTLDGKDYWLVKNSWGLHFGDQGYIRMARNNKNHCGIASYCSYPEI
Chain of Cat L (Mus musculus, UniProt P06797) (P06797 114-334): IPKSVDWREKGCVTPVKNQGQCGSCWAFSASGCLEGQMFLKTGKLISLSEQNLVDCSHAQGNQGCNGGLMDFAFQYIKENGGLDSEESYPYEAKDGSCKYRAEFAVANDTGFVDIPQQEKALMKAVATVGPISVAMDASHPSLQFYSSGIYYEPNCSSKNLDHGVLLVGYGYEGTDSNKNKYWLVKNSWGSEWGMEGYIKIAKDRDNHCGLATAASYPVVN
Chain of Cat K (Macaca fascicularis, UniProt P61276) (P61276 115-329): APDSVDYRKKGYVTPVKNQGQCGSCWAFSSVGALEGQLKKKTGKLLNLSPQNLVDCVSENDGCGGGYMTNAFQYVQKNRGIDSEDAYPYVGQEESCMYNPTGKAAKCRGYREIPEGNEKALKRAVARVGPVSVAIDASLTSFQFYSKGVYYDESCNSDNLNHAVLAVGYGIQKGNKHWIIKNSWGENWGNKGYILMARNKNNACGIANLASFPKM
Chain of Cat G (P08311 21-244): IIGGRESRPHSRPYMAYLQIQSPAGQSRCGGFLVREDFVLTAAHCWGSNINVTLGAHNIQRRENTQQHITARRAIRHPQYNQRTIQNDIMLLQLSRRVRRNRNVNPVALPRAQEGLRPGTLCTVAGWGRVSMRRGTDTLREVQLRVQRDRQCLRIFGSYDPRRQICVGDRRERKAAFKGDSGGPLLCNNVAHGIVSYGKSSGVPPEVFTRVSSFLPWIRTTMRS
Chain of Cat L (Rattus norvegicus, UniProt P07154) (P07154 114-334): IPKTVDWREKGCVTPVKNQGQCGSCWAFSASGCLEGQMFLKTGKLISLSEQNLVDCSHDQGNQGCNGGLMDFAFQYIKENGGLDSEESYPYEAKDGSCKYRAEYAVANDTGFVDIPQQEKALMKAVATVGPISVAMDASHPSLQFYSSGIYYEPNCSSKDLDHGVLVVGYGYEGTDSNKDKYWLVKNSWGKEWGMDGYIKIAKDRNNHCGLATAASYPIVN

With `CCN(CC)CCCC(C)Nc1ccnc2cc(Cl)ccc12` (centres unmarked) [Chloroquine] the IC50 (SARS-CoV-1 (Toronto 2)) was 2020 nM, the IC50 [1] was 3710 nM and the IC50 (MERS (EMC/2012); [14]) was 21000 nM. The CC50 (in vitro [2]) was > 30000 nM.

In the case of `CN(C)C(=O)COC(=O)Cc1ccc(OC(=O)c2ccc(NC(=N)N)cc2)cc1` [camostat], the “Selectivity Index CC50/IC50” value (SARS-CoV-1 (Toronto 2)) is reported as >1, the “antiviral activity” value (SARS-CoV-1 (Toronto 2)) is reported as “no antiviral activity” and the IC50 (SARS-CoV-1 (Toronto 2)) is reported as > 50000 nM. For the same molecule, the “Selectivity Index CC50/IC50” value [1] was >1, the “antiviral activity” value [1] was “no antiviral activity” and the IC50 [1] was > 50000 nM. For the same molecule, the “Selectivity Index CC50/IC50” value (MERS (EMC/2012)) was >1, the “antiviral activity” value (MERS (EMC/2012)) was “no antiviral activity” and the IC50 (MERS (EMC/2012); [14]) was > 50000 nM. The IC50 (MERS (EMC/2012); [15]) was > 50000 nM, the “SARS-CoV-2 activity in Calu-3 cells, expression of N protein” value [3] was “reduced the expression of N protein” and the IC50 ([3]; read-out: Exp. 1 IC50) was 160 nM. The IC50 ([3]; read-out: Exp. 2 IC50) was 290 nM, the “SARS-CoV-2 antiviral activity, titer by plaque assay (FIG. 8A, words)” value (SARS-CoV-2) was “dose-dependent SARS-CoV-2 antiviral activity” and the CC50 (in vitro [2]) was > 50000 nM.

In the case of `CCC(CC)COC(=O)[C@H](C)N[P@](=O)(OC[C@H]1O[C@@](C#N)(c2ccc3c(N)ncnn23)[C@H](O)[C@@H]1O)Oc1ccccc1` [Remdesivir], the “Selectivity Index CC50/IC50” value (SARS-CoV-1 (Toronto 2)) is reported as >4.0, the IC50 (SARS-CoV-1 (Toronto 2)) is reported as 7420 nM and the “Selectivity Index CC50/IC50” value [1] is reported as >7.2. For the same molecule, the IC50 [1] was 4150 nM, the “Selectivity Index CC50/IC50” value (MERS (EMC/2012)) was >2.4 and the IC50 (MERS (EMC/2012); [14]) was 12500 nM. The IC50 ([3]; read-out: Exp. 1 IC50) was 1940 nM, the IC50 ([3]; read-out: Exp. 2 IC50) was 2150 nM and the CC50 (in vitro [2]) was > 30000 nM.

With `CC(C)C[C@H](NC(=O)c1cc2ccccc2o1)C(=O)N[C@H]1CC[C@@H](C)N(S(=O)(=O)c2ccccn2)CC1=O` [relacatib, N-((2S)-4-methyl-1-(((4S,7R)-7-methyl-3-oxo-1-(pyridin-2-ylsulfonyl)azepan-4-yl)amino)-1-oxopentan-2-yl)benzofuran-2-carboxamide] the EC50 (EBOV (Kikwit)) was 2890 nM, the EC50 (EBOV (Makona) [4]) was 360 nM and the EC90 (EBOV (Makona) [5]) was 9710 nM. The EC50 (MARV) was 250 nM, the EC50 (MERS-CoV) was 40 nM and the EC50 (NiV) was 15 nM. For the same molecule, the EC50 (LASV) was > 100000 nM, the EC50 (HTNV) was > 100000 nM and the EC50 (WNV) was > 100000 nM. It also gave an IC50 (SARS-CoV-1 (Toronto 2)) of 230 nM, an IC50 [1] of 20 nM and an IC50 (MERS (EMC/2012); [14]) of 600 nM. The IC50 (MERS (EMC/2012); [15]) was 680 nM, the “SARS-CoV-2 activity in Calu-3 cells, expression of N protein” value [3] was “no measurable SARS-CoV-2 activity” and the IC50 ([3]; read-out: Exp. 1 IC50) was > 50000 nM. For the same molecule, the IC50 ([3]; read-out: Exp. 2 IC50) was > 50000 nM, the “SARS-CoV-2 antiviral activity, titer by plaque assay (FIG. 8A, words)” value (SARS-CoV-2) was “essentially no activity” and the Ki (Cat V (L2) [6]) was 0.05 nM. The Ki (Cat V (L2) [6]; read-out: Ki, app) was 0.053 nM, the “GI pathology in colon (FIG. 5C, words)” value (EBOV) was “enhanced GI pathology noted in colon” and the “Kaplan-Meier survival, P treatment versus vehicle control (Log-rank Mantel-Cox test)” value (EBOV; po) was 0.0565. The Ki (Cat G) was > 30000 nM, the Ki (Cat D) was > 10000 nM and the Ki (Calpain) was 310 nM. The Ki (Caspase 3-4) was > 10000 nM, the Ki (Cat K [7]) was 0.04 nM and the Ki (Cat L [8]) was 0.3 nM. For the same molecule, the Ki (Cat V (L2) [9]) was 0.7 nM, the Ki (Cat L [10]) was 0.2 nM and the Ki (Cat S) was 5.5 nM. For the same molecule, the Ki (Cat K [11]) was 15 nM, the Ki (Cat L [12]) was 0.2 nM and the CC50 (in vitro [13]) was > 20000 nM. The CC50 (in vitro [2]) was > 50000 nM.

Source: US20240066037A1 (priority 2020, published 2024)
